In one test the target is T1, human orexin-1 receptor (Homo sapiens, UniProt O43613).
T1 construct: expressed in transfected cells; host or cells: CHO (Chinese hamster ovary) cells, kept under G418
T1 sequence (O43613 1-425): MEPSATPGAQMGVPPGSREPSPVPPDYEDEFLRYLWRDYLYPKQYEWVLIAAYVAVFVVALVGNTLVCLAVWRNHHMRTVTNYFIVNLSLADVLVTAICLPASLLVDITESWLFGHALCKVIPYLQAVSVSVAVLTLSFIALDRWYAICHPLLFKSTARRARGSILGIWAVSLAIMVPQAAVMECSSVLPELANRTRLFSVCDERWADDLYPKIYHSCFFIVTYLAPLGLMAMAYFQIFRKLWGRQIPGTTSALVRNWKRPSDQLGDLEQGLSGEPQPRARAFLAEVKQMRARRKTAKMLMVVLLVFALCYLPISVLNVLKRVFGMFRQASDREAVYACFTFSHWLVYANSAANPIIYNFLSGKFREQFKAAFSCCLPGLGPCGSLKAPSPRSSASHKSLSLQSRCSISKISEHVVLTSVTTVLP
Put plainly: FLIPR intracellular calcium assay, orexin receptor antagonistic activity (OX1). Format: cell-based. Particulars: CHO cells expressing human orexin-1 receptor; 3 nM orexin-A; normalized to on-plate reference; *n = geometric mean from n values. Here is the method: (§1) The orexin receptor antagonistic activity of the compounds of formula (I) is determined in accordance with the following experimental method.
(§2) Chinese hamster ovary (CHO) cells expressing the human orexin-1 receptor and the human orexin-2 receptor, respectively, are grown in culture medium (Ham F-12 with L-Glutamine) containing 300 μg/ml G418, 100 U/ml penicillin, 100 μg/ml streptomycin and 10% heat inactivated fetal calf serum (FCS). The cells are seeded at 20′000 cells/well into 384-well black clear bottom sterile plates (Greiner). The seeded plates are incubated overnight at 37° C. in 5% CO2.
(§3) Human orexin-A as an agonist is prepared as 1 mM stock solution in MeOH:water (1:1), diluted in HBSS containing 0.1% bovine serum albumin (BSA), NaHCO3: 0.375 g/l and 20 mM HEPES for use in the assay at a final concentration of 3 nM.
(§4) Antagonists are prepared as 10 mM stock solution in DMSO, then diluted in 384-well plates using DMSO followed by a transfer of the dilutions into in HBSS containing 0.1% bovine serum albumin (BSA), NaHCO3: 0.375 g/l and 20 mM HEPES. On the day of the assay, 50 μl of staining buffer (HBSS containing 1% FCS, 20 mM HEPES, NaHCO3: 0.375 g/l, 5 mM probenecid (Sigma) and 3 μM of the fluorescent calcium indicator fluo-4 AM (1 mM stock solution in DMSO, containing 10% pluronic) is added to each well. The 384-well cell-plates are incubated for 50 min at 37° C. in 5% CO2 followed by equilibration at rt for 30-120 min before measurement.
(§5) Within the Fluorescent Imaging Plate Reader (FLIPR Tetra, Molecular Devices), antagonists are added to the plate in a volume of 10 μl/well, incubated for 10 min and finally 10 μl/well of agonist is added. Fluorescence is measured for each well at 1 second intervals, and the height of each fluorescence peak is compared to the height of the fluorescence peak induced by 3 nM orexin-A with vehicle in place of antagonist. For each antagonist, the IC50 value (the concentration of compound needed to inhibit 50% of the agonistic response) is determined and normalized using the obtained IC50 value of a on-plate reference compound. Optimized conditions were achieved by adjustment of pipetting speed and cell splitting regime. The calculated IC50 values of the compounds may fluctuate depending on the daily cellular assay performance. Fluctuations of this kind are known to those skilled in the art.

The target of a further test is T2, human orexin-2 receptor (Homo sapiens, UniProt O43614).
T2 construct: expressed in transfected cells; host or cells: CHO (Chinese hamster ovary) cells, kept under G418
T2 sequence (O43614 1-444): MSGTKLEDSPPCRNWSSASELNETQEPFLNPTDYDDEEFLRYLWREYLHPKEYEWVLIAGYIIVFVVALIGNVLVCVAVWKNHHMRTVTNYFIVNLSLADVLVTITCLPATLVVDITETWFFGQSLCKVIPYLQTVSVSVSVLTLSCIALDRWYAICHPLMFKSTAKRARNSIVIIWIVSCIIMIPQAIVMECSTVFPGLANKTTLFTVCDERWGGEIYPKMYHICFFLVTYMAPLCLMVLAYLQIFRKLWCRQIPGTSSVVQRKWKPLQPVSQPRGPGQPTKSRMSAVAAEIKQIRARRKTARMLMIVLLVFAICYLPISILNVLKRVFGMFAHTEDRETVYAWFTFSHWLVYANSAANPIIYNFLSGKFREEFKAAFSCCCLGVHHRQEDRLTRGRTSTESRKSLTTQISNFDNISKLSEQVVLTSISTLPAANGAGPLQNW
As to the kind of experiment: FLIPR intracellular calcium assay, orexin receptor antagonistic activity (OX2). The class given is cell-based. Particulars: CHO cells expressing human orexin-2 receptor; 3 nM orexin-A; normalized to on-plate reference; *n = geometric mean from n values. Here is the method:
as §1, §2, §3, §4, §5

pIC50: −log10 of the molar value.

As for `COc1cccc(OC)c1C1SC(C)C(=O)N1Cc1ccc2ccccc2c1` (centres unmarked) [Example 14, 2-(2,6-Dimethoxy-phenyl)-5-methyl-3-naphthalen-2-ylmethyl-thiazolidin-4-one], the pIC50 on human orexin-1 receptor was 7.51; at human orexin-2 receptor it was 7.36.
For the compound `CCOc1ccc(CN2C(=O)CSC2c2c(OC)cccc2OCC)cc1` (centres unmarked) [Example 15, 3-(4-Ethoxy-benzyl)-2-(2-ethoxy-6-methoxy-phenyl)-thiazolidin-4-one], the pIC50 on human orexin-1 receptor was 6.07; on human orexin-2 receptor, 7.32.
In the same order, the values of `CCOc1cccc(OC)c1C1SCC(=O)N1Cc1ccc(OC(F)(F)F)cc1` (centres unmarked) [Example 16, 2-(2-Ethoxy-6-methoxy-phenyl)-3-(4-trifluoromethoxy-benzyl)-thiazolidin-4-one] are 6.34 and 7.62.
In the same order, the values of `COc1cccc(OC)c1C1SC(C)C(=O)N1Cc1ccc(OC(F)(F)F)cc1` (centres unmarked) [Example 17, 2-(2,6-Dimethoxy-phenyl)-5-methyl-3-(4-trifluoromethoxy-benzyl)-thiazolidin-4-one] are 6.44 and 7.82.
The matching figures for `COc1cccc(OC)c1C1SCC(=O)N1Cc1ccc(OCC(F)(F)F)cc1` (centres unmarked) [Example 18, 2-(2,6-Dimethoxy-phenyl)-3-[4-(2,2,2-trifluoro-ethoxy)-benzyl]-thiazolidin-4-one]: 6.49 and 8.00.
In the case of `CCOc1ccc(CN2C(=O)CSC2c2c(OC)ccc3c(C)noc23)cc1` (centres unmarked) [Example 19, 3-(4-Ethoxy-benzyl)-2-(6-methoxy-3-methyl-benzo[d]isoxazol-7-yl)-thiazolidin-4-one], the pIC50 was 5.09 at human orexin-1 receptor and 6.82 on human orexin-2 receptor.
In the same order, the values of `CCOc1ccc(CN2C(=O)CSC2c2c(OC)ccc3nc(C)oc23)cc1` (centres unmarked) [Example 20, 3-(4-Ethoxy-benzyl)-2-(6-methoxy-2-methyl-benzooxazol-7-yl)-thiazolidin-4-one] are 5.81 and 6.47.
The matching figures for `CCOc1ccc(CN2C(=O)CSC2c2c(OC)ccc3cccnc23)cc1` (centres unmarked) [Example 21, 3-(4-Ethoxy-benzyl)-2-(7-methoxy-quinolin-8-yl)-thiazolidin-4-one]: 5.84 and 7.22.
As to `COc1ccc2c(C)noc2c1C1SCC(=O)N1Cc1ccc(OC(F)(F)F)cc1` (centres unmarked) [Example 22, 2-(6-Methoxy-3-methyl-benzo[d]isoxazol-7-yl)-3-(4-trifluoromethoxy-benzyl)-thiazolidin-4-one], the results for the pIC50 at human orexin-1 receptor and at human orexin-2 receptor were 5.63 and 7.72, respectively.
`COc1ccc2nc(C)oc2c1C1SCC(=O)N1Cc1ccc(OC(F)(F)F)cc1` (centres unmarked) [Example 23, 2-(6-Methoxy-2-methyl-benzooxazol-7-yl)-3-(4-trifluoromethoxy-benzyl)-thiazolidin-4-one]: the pIC50 is 6.69 at human orexin-1 receptor and 7.55 on human orexin-2 receptor.
Take `COc1ccc2cccnc2c1C1SCC(=O)N1Cc1ccc(OC(F)(F)F)cc1` (centres unmarked) [Example 24, 2-(7-Methoxy-quinolin-8-yl)-3-(4-trifluoromethoxy-benzyl)-thiazolidin-4-one]: the pIC50 on human orexin-1 receptor is 6.56; at human orexin-2 receptor, 7.85.
In the same order, the values of `COc1ccnc(OC)c1C1SCC(=O)N1Cc1ccc(OC(F)(F)F)cc1` (centres unmarked) [Example 25, 2-(2,4-Dimethoxy-pyridin-3-yl)-3-(4-trifluoromethoxy-benzyl)-thiazolidin-4-one] are 6.25 and 7.80.
Consider `CCOc1ccc(CN2C(=O)CSC2c2c(OC)ccnc2OC)cc1` (centres unmarked) [Example 26, 2-(2,4-Dimethoxy-pyridin-3-yl)-3-(4-ethoxy-benzyl)-thiazolidin-4-one], for which the pIC50 was 5.37 on human orexin-1 receptor and 6.90 on human orexin-2 receptor.
The matching figures for `COc1cccc(OC)c1C1SCC(=O)N1Cc1ccc2ccccc2n1` (centres unmarked) [Example 27, 2-(2,6-Dimethoxy-phenyl)-3-quinolin-2-ylmethyl-thiazolidin-4-one]: 6.81 and 7.74.
The matching figures for `COc1cncc(OC)c1C1SCC(=O)N1Cc1ccc(OC(F)(F)F)cc1` (centres unmarked) [Example 28, 2-(3,5-Dimethoxy-pyridin-4-yl)-3-(4-trifluoromethoxy-benzyl)-thiazolidin-4-one]: 6.68 and 7.80.
In the same order, the values of `CCOc1ccc(CN2C(=O)CSC2c2c(OC)cncc2OC)cc1` (centres unmarked) [Example 29, 2-(3,5-Dimethoxy-pyridin-4-yl)-3-(4-ethoxy-benzyl)-thiazolidin-4-one] are 5.98 and 7.44.
In the case of `COc1cccc(OC)c1C1SC(C)C(=O)N1Cc1ccc2ccccc2n1` (centres unmarked) [Example 30, 2-(2,6-Dimethoxy-phenyl)-5-methyl-3-quinolin-2-ylmethyl-thiazolidin-4-one], the negative-log IC50 (pIC50) on human orexin-1 receptor is 6.45; at human orexin-2 receptor, 6.35.
In the same order, the values of `COc1ccc2cc(CN3C(=O)C(C)SC3c3c(OC)cccc3OC)ccc2c1` (centres unmarked) [Example 31, 2-(2,6-Dimethoxy-phenyl)-3-(6-methoxy-naphthalen-2-ylmethyl)-5-methyl-thiazolidin-4-one] are 7.96 and 7.52.
The matching figures for `COc1ccc2cc(CN3C(=O)CSC3c3c(OC)cccc3OC)ccc2c1` (centres unmarked) [Example 32, 2-(2,6-Dimethoxy-phenyl)-3-(6-methoxy-naphthalen-2-ylmethyl)-thiazolidin-4-one]: 7.82 and 8.22.
With `COc1cc(F)cc(OC)c1C1SCC(=O)N1Cc1ccc(OC(F)(F)F)cc1` (centres unmarked) [Example 33, 2-(4-Fluoro-2,6-dimethoxy-phenyl)-3-(4-trifluoromethoxy-benzyl)-thiazolidin-4-one], the pIC50 is 6.98 on human orexin-1 receptor and 8.10 on human orexin-2 receptor.
The matching figures for `COc1cc(C)cc(OC)c1C1SCC(=O)N1Cc1ccc(OC(F)(F)F)cc1` (centres unmarked) [Example 34, 2-(2,6-Dimethoxy-4-methyl-phenyl)-3-(4-trifluoromethoxy-benzyl)-thiazolidin-4-one]: 6.97 and 7.55.
The matching figures for `COc1cc(C)cc(OC)c1C1SC(C)C(=O)N1Cc1ccc(OC(F)(F)F)cc1` (centres unmarked) [Example 35, 2-(2,6-Dimethoxy-4-methyl-phenyl)-5-methyl-3-(4-trifluoromethoxy-benzyl)-thiazolidin-4-one]: 6.77 and 6.89.
In the same order, the values of `COc1cc(F)cc(OC)c1C1SC(C)C(=O)N1Cc1ccc(OC(F)(F)F)cc1` (centres unmarked) [Example 36, 2-(4-Fluoro-2,6-dimethoxy-phenyl)-5-methyl-3-(4-trifluoromethoxy-benzyl)-thiazolidin-4-one] are 6.77 and 7.48.
Consider `CCOc1ccccc1C1SCCC(=O)N1Cc1ccccc1OC(F)F` (centres unmarked) [Example 40, 3-(2-Difluoromethoxy-benzyl)-2-(2-ethoxy-phenyl)-[1,3]thiazinan-4-one], for which the pIC50 is 5.88 at human orexin-1 receptor and 7.17 at human orexin-2 receptor.
Take `CCOc1ccccc1C1SCCC(=O)N1Cc1c(OC)cccc1OC` (centres unmarked) [Example 43, 3-(2,6-Dimethoxy-benzyl)-2-(2-ethoxy-phenyl)-[1,3]thiazinan-4-one]: the pIC50 on human orexin-1 receptor was 6.10; on human orexin-2 receptor, 7.15.
